Data taken from PMC12568586, “Mass spectrometry-guided discovery of novel GCPII inhibitor scaffolds” (Frontiers in Pharmacology, 2025).
“And” between values parts separate entries of the source, which are not always exact repeats. Identical values can stand only once. Like-named read-outs stand apart in the source and are kept apart here.

Experiments:
[1] = target: T1, recombinant human (rh) GCPII (Homo sapiens, UniProt Q04609); experiment: nanoDSF thermal shift assay; assay type: binding; conditions: for Tm of GCPII in the presence of compound: compound at 250 μM, DMSO Tm 78.93 °C; for shift in Tm (Δ): compound at 25 μM, vs DMSO
T1 construct: purchased Sino Biological
T1 sequence (Q04609 whole entry): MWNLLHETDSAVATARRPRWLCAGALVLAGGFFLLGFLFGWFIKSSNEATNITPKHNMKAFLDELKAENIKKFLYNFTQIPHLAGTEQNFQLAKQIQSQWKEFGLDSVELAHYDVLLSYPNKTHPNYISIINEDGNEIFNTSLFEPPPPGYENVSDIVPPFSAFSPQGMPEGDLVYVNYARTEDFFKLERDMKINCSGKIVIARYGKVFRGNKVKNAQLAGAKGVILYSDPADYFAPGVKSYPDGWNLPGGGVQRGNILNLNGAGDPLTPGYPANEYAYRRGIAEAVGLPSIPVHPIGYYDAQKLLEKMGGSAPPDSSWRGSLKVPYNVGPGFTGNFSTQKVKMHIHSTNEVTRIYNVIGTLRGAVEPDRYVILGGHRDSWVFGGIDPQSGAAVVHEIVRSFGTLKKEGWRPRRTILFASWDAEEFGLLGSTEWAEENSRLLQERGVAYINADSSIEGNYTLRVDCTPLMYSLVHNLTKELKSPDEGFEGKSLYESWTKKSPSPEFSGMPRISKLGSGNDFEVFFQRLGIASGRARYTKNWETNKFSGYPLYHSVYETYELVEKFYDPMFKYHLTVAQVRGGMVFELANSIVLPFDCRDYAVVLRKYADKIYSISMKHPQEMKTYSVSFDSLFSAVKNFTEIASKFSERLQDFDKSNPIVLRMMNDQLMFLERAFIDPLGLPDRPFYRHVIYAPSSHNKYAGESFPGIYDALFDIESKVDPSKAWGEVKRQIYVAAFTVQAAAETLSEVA
Experimental: nanoDSF experiments were performed to assess the thermal stability of GCPII in the presence of various inhibitors. Protein samples were prepared at a concentration of 0.15 mg/mL in 50 mM Tris-HCl (pH 7.4), 1 mM CoCl2, 150 mM NaCl, and 0.01% Tween-20. Samples were incubated at 25 °C for 30 min prior to measurement with shaking at 1,000 rpm. Thermal unfolding was monitored using a Prometheus Panta nanoDSF instrument using standard capillaries (NanoTemper Technologies). The intrinsic fluorescence at 350 nm and 330 nm was recorded as a function of temperature, and the fluorescence ratio (350/330 nm) and its first derivative were used to track protein unfolding. A thermal gradient from 25 °C to 95 °C was applied at a rate of 0.5 °C per minute. The melting temperature (Tm) was determined from the global maximum of the first derivative of the fluorescence ratio curve. Each condition was tested in at least three independent replicates, and data was analyzed using PR. ThermControl software (NanoTemper Technologies). One-way ANOVA with multiple comparisons to the DMSO vehicle control group was used to determine significant shifts from the control thermal unfolding profile.

[2] = tested on: GCPII; conditions: prior art compound, value given when selected for assay validation; no reference given; cited from earlier work
[3] = target: T2, GCPII (Homo sapiens, UniProt Q04609); experiment: dual-stream LC/MS/MS GCPII substrate cleavage (inhibition) assay; assay type: biochemical; set-up: purchased Sino Biological; conditions: for Max resp (100uM) / HTS max resp: in % (unit assumed); for inhibition at 10 µM: read-out: inhibition relative to the DMSO and no enzyme controls; for IC50: follow up screening, triplicate IC50 values ± standard deviation, read-out: IC50 (mass spec assay)
T2 sequence (Q04609 whole entry): as above
Experimental: The novel high-throughput dual-stream liquid chromatography–tandem mass spectrometry method used to screen for this study was recently published ([Hoxie et al., 2024]). Briefly, a 5 μL solution containing recombinant GCPII (SinoBio) in Tris–HCl (pH 7.4) with 1 mM CoCl2 was dispensed using a BioRAPTR 2.0 Flying Reagent Dispenser (Let’s Go Robotics) into 384-well assay plates (Greiner 784,201) pre-spotted with 100 nL of compound in DMSO using an Echo 655 Acoustic Liquid Handler (Beckman). Enzyme and compound were incubated for 15 min prior to the addition of 5 μL of ^13C5 ^15N-acetylaspartylglutamate (Aldrich). After 30 min s at room temperature, reactions were quenched using 0.2 μM D3-glutamate in LC/MS-grade acetonitrile and 0.1% formic acid. A 2-min liquid chromatography method utilizing a 2.1 × 30 mm BEH Amide HILIC column (Waters) was used to resolve glutamate from NAA and NAAG. A Sciex 6,500+ Q-Trap mass spectrometer was utilized for MS/MS quantification of released glutamate in the presence of compound. The integrated peak areas were normalized against the d3-glutamate internal standard, and then degree of inhibition was calculated using replicates containing no enzyme and enzyme with equivalent volumes of DMSO. Compounds were initially screened in a 10 μL reaction volume with 10 μM (final) compound dissolved in DMSO. […] To further increase throughput and the efficiency of screening, LC/MS analysis of libraries was conducted in dual-stream mode on an LS-1 autosampler (Sound Analytics).

[4] = target: T3, human rGCPII (Homo sapiens, UniProt Q04609); experiment: orthogonal radioenzymatic GCPII inhibition assay (3H-NAAG); assay type: biochemical; conditions: NAA[3H]G 30 nM, GCPII 40 pM, 37 °C, 25 min
T3 construct: purchased Sino Biological
T3 sequence (Q04609 whole entry): as above
Experimental: Radioenzymatic assay using ^3H-NAAG was performed as previously described ([Barinka et al., 2002]). Briefly, a 50 μL reaction mixture containing NAA [^3H]G (30 nM, 49 μCi/nmol) and GCPII (40 pM), in Tris-HCl (pH 7.4, 40 mM) with 1 mM CoCl2 was incubated at 37 °C for 25 min and stopped with 50 μL ice-cold sodium phosphate buffer (pH 7.5, 0.1 M). AG1X8 ion-exchange resin was used to separate cleaved [^3H]glutamate, and the flowthrough was transferred to solid scintillator-coated 96-well plates (Packard) and allowed to dry. Radioactivity was measured by a Topcount NXT from Packard. Each compound was run in duplicate, and 6–8-point dose-response curves were generated.

[5] = target: T2, GCPII; experiment: mode of inhibition study (radioenzymatic assay, varied NAA[3H]G, Michaelis-Menten analysis); conditions: for Ki: Ki (secondary plot Km app/Vmax vs [inhibitor], −X intercept), 40 pM GCPII; for mode of inhibition: NAAG as substrate
Experimental: The mode of inhibition was also determined as previously described following the same procedure as the radioenzymatic-based IC50 assay but with modification of the concentrations of NAA [^3H]G. ([Barinka et al., 2002]). […] A Michaelis-Menten kinetics analysis was done to determine the Km and Vmax at each inhibitor concentration.

[6] = pharmacokinetic and brain penetration study in mice; assay type: in vivo; conditions: 100 mg/kg IP, C57BL/6 mice
Experimental: Pharmacokinetic studies in mice were approved by the Animal Care and Use Committee at Johns Hopkins University. Male C57BL/6 mice (25–30 g) were housed under a 12-h light-dark cycle with ad libitum access to food and water. Cefsulodin was administered intraperitoneally (IP) at a dosage of 100 mg/kg prepared freshly (5% DMSO and 95% HEPES saline v/v) with a dosing volume of 10 mL/kg. Blood and brain tissue samples were collected at 0.083–3 h post-administration (n = 3 per time point). Blood was obtained via cardiac puncture, and plasma was separated by low-speed centrifugation at 3,000 × g for 15 min and stored at −80 °C. Brain tissues were harvested, and immediately frozen in liquid nitrogen, and stored at −80 °C until analyses.
As cefsulodin is known to be unstable, plasma and brain tissue samples were prepared with the addition of 2% formic acid in water to adjust the pH to 5 ([Lecaillon et al., 1982]). For quantification of cefsulodin, plasma samples were diluted 10-fold with blank plasma, and a total of 40 μL of plasma was extracted using a protein precipitation method by adding methanol containing the internal standard (diclofenac, 1 μM). The mixture was vortex-mixed for 30 s and centrifuged at 14,000 rpm for 5 min at 4 °C. Brain tissues were homogenized in methanol at a 1:5 (w/v) ratio. A 50 μL aliquot of the homogenate was precipitated with methanol containing the internal standard, vortex-mixed, and centrifuged at 14,000 rpm for 5 min at 4 °C. A 150 μL aliquot of the supernatant was transferred to a polypropylene vial sealed with a Teflon cap and analyzed by liquid chromatography with tandem mass spectrometric methods (LC-MS/MS) as described below.
Cefsulodin concentrations in mouse plasma and brain were measured using a Shimadzu Nexera X2 LC-40D system (Shimadzu Corporation, Kyoto, Japan) coupled with an API 6500 triple quadrupole mass spectrometer (AB Sciex, Redwood City, CA, United States). […] Quantitation was performed in multiple reaction monitoring (MRM) mode using cefsulodin (533.03 > 123.03) and diclofenac as the internal standard (296.13 > 215.03) ([Zhou et al., 2024]; [Park et al., 2024]). Calibration curves were constructed over the range of 0.01–100 nmol/mL or nmol/g for plasma and brain, respectively.
Plasma concentrations (nmol/mL) and brain concentrations (nmol/g) were determined, and mean concentration-time profiles were plotted for pharmacokinetic analysis. Non-compartmental analysis was performed using the Phoenix WinNonlin software version 8.4 (Certara United States, Inc., Princeton, NJ) to calculate pharmacokinetic parameters, including the maximum concentration (Cmax), time to Cmax (Tmax), and area under the concentration-time curve (AUC0–t).

[7] = maximum response at 100uM, dose response
[8] = library screening, seven-point dose response, read-out: AC50

Compound | Max resp (100uM) [3, 7] | HTS max resp ([3]; primary high-throughput screen) | inhibition at 10 µM ([3]; single point screen at 10 µM) [%] | IC50 [4] [nM] | IC50 [3] [nM] | further results
O=C(O)CCC(CCCS)C(=O)O (stereo not shown) [2-MPPA, 2-(3-mercaptopropyl)pentanedioic acid] | −96.75 | −100.00 | ≥ 50 |  |  | Tm of GCPII in the presence of compound [1]: 79.25 °C; IC50 [2]: 90 nM
O=C(O)CCC(CP(=O)(O)O)C(=O)O (stereo not shown) [2-PMPA, 2-(phosphonomethyl)pentanedioic acid] | −98.19 | −100.00 | ≥ 50 |  |  | Tm of GCPII in the presence of compound [1]: 90.70 °C; IC50 [2]: […]
NCc1ccccc1CC(=O)N[C@@H]1C(=O)N2C(C(=O)O)=C(CSc3nnnn3CC(=O)O)CS[C@H]12 [Ceforanide] |  |  |  | 14000 ± 6000 | 29000 ± 400 | 
CO[C@@]1(NC(=O)C2SC(=C(C(N)=O)C(=O)O)S2)C(=O)N2C(C(=O)O)=C(CSc3nnnn3C)CS[C@@H]21 (stereo partly shown) [Cefotetan] |  |  |  | 2000 ± 1000 | 9700 ± 3000 | 
N[C@@H](Cn1oc(=O)[nH]c1=O)C(=O)O [L-Quisqualic acid] |  |  |  |  |  | IC50 [2]: 10000 nM; AC50 [3]: 7900 nM; HTS max resp [3]: −93.07; Max resp (100uM) [3]: −91.35; inhibition at 10 µM [3]: ≥ 50%
CN(Cc1cnc2nc(N)nc(N)c2n1)c1ccc(C(=O)N[C@@H](CCC(=O)O)C(=O)O)cc1 [Methotrexate] |  |  | ≥ 50 |  |  | 
O=C1OC(c2ccc(O)c(S(=O)(=O)O)c2)(c2ccc(O)c(S(=O)(=O)O)c2)c2c(Br)c(Br)c(Br)c(Br)c21 [Sulfobromophthalein] |  |  |  | 230 ± 100 | 400 ± 100 | 

Further lines, with some results ahead:

Max resp (100uM) [3, 7] | HTS max resp ([3]; primary high-throughput screen) | inhibition at 10 µM ([3]; single point screen at 10 µM) [%] | IC50 [4] [nM] | IC50 [3] [nM] | Compound | further results
−101.68 | −101.93 |  | 300 ± 10 | 1500 ± 300 | O=S(=O)(O)c1ccc2c(/N=N/c3ccc(S(=O)(=O)O)c4ccccc34)c(O)c(S(=O)(=O)O)cc2c1 [Amaranth] | shift in Tm (Δ) [1]: 0.76 °C; AC50 [3, 8]: 2500 nM; Ki [5]: 1100 ± 60 nM; mode of inhibition [5]: non-competitive inhibition
 |  |  | 4900 ± 2000 | 32000 ± 2000 | O=C(O)C1=C(CSc2nnnn2CS(=O)(=O)O)CS[C@@H]2[C@H](NC(=O)[C@H](O)c3ccccc3)C(=O)N12 [Cefonicid sodium] | 
−98.19 | −92.18 |  | 2000 ± 100 | 3600 ± 300 | NC(=O)c1cc[n+](CC2=C(C(=O)O)N3C(=O)[C@@H](NC(=O)[C@@H](c4ccccc4)S(=O)(=O)[O-])[C@H]3SC2)cc1 [Cefsulodin] | shift in Tm (Δ) [1]: 0.65 (±0.07) °C; brain penetration index [6]: low; brain Cmax ([6]; brain): 4 µM and 4.9 µM; brain exposure (AUC) ([6]; brain): 4.36 ± 1.12 nmol·h/g; time of brain Cmax ([6]; brain, post-dose): 30 min; AC50 [3, 8]: 3900 nM; Ki [5]: 2500 nM and 2000 nM; mode of inhibition [5]: competitive, active-site inhibition
 |  | ≥ 50 |  |  | Nc1nc(=O)c2nc(CNc3ccc(C(=O)N[C@@H](CCC(=O)O)C(=O)O)cc3)cnc2[nH]1 [Folic Acid] | 
 |  |  | 1900 ± 300 | 11000 ± 200 | CC1(C)C(/C=C/C=C/C=C/C=C2\N(CCCCS(=O)(=O)O)c3ccc4ccccc4c3C2(C)C)=[N+](CCCCS(=O)(=O)[O-])c2ccc3ccccc3c21 [Indocyanine green] | 
 |  |  | 210 ± 50 | 2100 ± 400 | Cc1cc(-c2ccc(/N=N/c3c(S(=O)(=O)O)cc4cc(S(=O)(=O)O)cc(N)c4c3O)c(C)c2)ccc1/N=N/c1c(S(=O)(=O)O)cc2cc(S(=O)(=O)O)cc(N)c2c1O [Trypan blue] | 
